Test results taken from patent publication US8969554B2, “6-acyl-1,2,4-triazine-3,5-dione derivative and herbicides” (Kumiai Chemical Industry Co., Ltd., priority 2010, dated 2015).

Tests used:
Format in all cases: in vivo
Scirpus juncoides Rocxb. = assay: Herbicidal activity by paddy field soil treatment (Test Example 1); parameters: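 index 0 to 10 in 10% steps of herbicidal effect with 10 meaning complete death and 0 below 10%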; conditions: applied on water surface, 1000 g of effective component per hectare, day 21 after the treatment
Summary of the method: (§1)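 Seeds were sown in puddled paddy soil in pots flooded to 3 cm water depth; the next day a water-diluted wettable powder was applied to the water surface at 1000 g active ingredient/ha. Plants were grown in a greenhouse and herbicidal effect scored by graded criteria on day 21 after treatment.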

Echinochloa oryzicola = assay: as above; parameters: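 index 0 to 10 in 10% steps of herbicidal effect with 10 meaning complete death and 0 below 10%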; conditions: 1000 g of effective component per hectare, evaluated on day 21 after the treatment, criteria of Table 72
Summary of the method: as §1

Monochoria vaginalis = assay: as above; parameters: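 index 0 to 10 in 10% steps of herbicidal effect with 10 meaning complete death and 0 below 10%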; conditions: 1000 g of effective component per hectare, evaluated on day 21 after the treatment, criteria of Table 72
Summary of the method: as §1

foxtail = assay: Herbicidal activity by field soil treatment (Test example 2); conditions: 1000 g effective component per hectare, day 21 after the treatment;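 further: index 0 to 10 in 10% steps of herbicidal effect with 10 meaning complete death and 0 below 10%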
Protocol: [table] Test for Determining Herbicidal Activity by Field Soil Treatment A 80 cm^2 wide plastic pot was filled with a field soil and seeds of each of Echinochloa crus-galli, foxtail, Indian millet, and A. retroflexus were sowed and then covered with soil. The wettable powder produced with reference to the Formulation example 1 was diluted water, and applied on the soil surface by using a small sprayer in an amount of 1000 liters per hectare so that the effective component is 1000 g per hectare. After that, the plants were cultivated in a greenhouse, and on day 21 after the treatment, evaluation was made by the criteria described in Table 72 for determining the herbicidal effects.

A. retroflexus [1] = assay: Herbicidal activity by field foliage treatment (Test example 3); parameters: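 index 0 to 10 in 10% steps of herbicidal effect with 10 meaning complete death and 0 below 10%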; conditions: 1000 g effective component per hectare, day 14 after the treatment
Summary of the method: (§2)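 Plants were grown from seed in field soil in a greenhouse for 2 weeks, then sprayed over the whole foliage with a water-diluted wettable powder at 1000 L/ha spray volume, delivering 1000 g active ingredient per hectare. Herbicidal effect was scored on day 14 after treatment.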

Indian millet [2] = assay: as above; parameters: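 index 0 to 10 in 10% steps of herbicidal effect with 10 meaning complete death and 0 below 10%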; conditions: 1000 g effective component per hectare, day 14 after the treatment
Summary of the method: as §2

A. retroflexus [3] = assay: Herbicidal activity by field soil treatment (Test example 2); parameters: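 index 0 to 10 in 10% steps of herbicidal effect with 10 meaning complete death and 0 below 10%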; conditions: 1000 g effective component per hectare, day 21 after the treatment
Summary of the method: (§3)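 Seeds were sown in field soil in 80 cm^2 pots and covered with soil. A water-diluted wettable powder was then sprayed onto the soil surface at 1000 liters per hectare, delivering 1000 g active ingredient per hectare. Plants grew in a greenhouse, and herbicidal effect was scored against set criteria 21 days after treatment.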

Echinochloa crus-galli [4] = assay: as above; parameters: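 index 0 to 10 in 10% steps of herbicidal effect with 10 meaning complete death and 0 below 10%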; conditions: 1000 g effective component per hectare, day 21 after the treatment
Summary of the method: as §3

Indian millet [5] = assay: as above; parameters: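 index 0 to 10 in 10% steps of herbicidal effect with 10 meaning complete death and 0 below 10%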; conditions: 1000 g effective component per hectare, day 21 after the treatment
Summary of the method: as §3

Setaria viridis = assay: Herbicidal activity by field foliage treatment (Test example 3); conditions: 1000 g effective component per hectare, day 14 after the treatment;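 further: index 0 to 10 in 10% steps of herbicidal effect with 10 meaning complete death and 0 below 10%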
Summary of the method: (§4)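 Potted field-soil plants grown 2 weeks in a greenhouse were sprayed over the whole foliage with diluted wettable powder at 1000 L/ha, delivering 1000 g active ingredient per hectare. Herbicidal effect scored by visual criteria 14 days after treatment.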

Echinochloa crus-galli [6] = assay: as above; parameters: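 index 0 to 10 in 10% steps of herbicidal effect with 10 meaning complete death and 0 below 10%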; conditions: 1000 g effective component per hectare, day 14 after the treatment
Summary of the method: as §4

SMILES	herbicidal effect index, S. juncoides Rocxb. (Scirpus juncoides Rocxb.)	Herbicidal effects index number, Echinochloa oryzicola (Echinochloa oryzicola)	Herbicidal effects index number, Monochoria vaginalis (Monochoria vaginalis)	herbicidal effect index, Setaria viridis (foxtail)	herbicidal effect index, Amaranthus retroflexus (A. retroflexus [1])	herbicidal effect index, Abutilon theophrasti (Indian millet [2])	herbicidal effect index, Amaranthus retroflexus (A. retroflexus [3])	herbicidal effect index, Echinochloa crus-galli (Echinochloa crus-galli [4])	herbicidal effect index, Abutilon theophrasti (Indian millet [5])	herbicidal effect index, Setaria viridis (Setaria viridis)	herbicidal effect index, Echinochloa crus-galli (Echinochloa crus-galli [6])
Cn1nc(C(=O)C2=C(O)CCCC2=O)c(=O)n(-c2ccccc2[N+](=O)[O-])c1=O [I-66]	10	10	10	10	10	10	10	10	10	10	10
Cn1nc(C(=O)C2=C(O)CCCC2=O)c(=O)n(-c2cccc(C#N)c2)c1=O [I-73]	10	10	10	8	10	10	10	9	10	10	10
Cn1nc(C(=O)C2=C(O)CCCC2=O)c(=O)n(C)c1=S [I-265]	10	10	10	10	10	9	10	10	10	9	8
CC1CC(C)(C)C(=O)C(C(=O)c2nn(C)c(=O)n(-c3ccccc3)c2=O)=C1O (stereo not shown) [VI-7]	10	10	10	10	10	10	10	10	10	10	10
Cn1nc(C(=O)C2=C(O)CCCC2=O)c(=O)n(-c2ccnc(Br)c2)c1=O [I-281]	10	10	10	9	9	9	10	9	9	7	9
Cn1nc(C(=O)C2=C(O)CCCC2=O)c(=O)n(-c2ccccc2C#N)c1=O [I-72]	10	10	10	10	10	10	10	9	10	10	10
Cc1ccc(C(F)(F)F)cc1-n1c(=O)c(C(=O)C2=C(O)CCCC2=O)nn(C)c1=O [I-284]	10	10	10	8	9	8	10	10	9	7	9
Cn1nc(C(=O)C2=C(O)CCCC2=O)c(=O)n(-c2ccc(-c3ccccc3)cc2)c1=O [I-271]	10	8	8	10	10	9	10	10	10	7	10
Cn1nc(C(=O)C2=C(O)CCCC2=O)c(=O)n(-c2cc(Cl)ccc2Cl)c1=O [I-85]	10	10	10	9	10	10	10	9	10	10	9
Cc1ccc(F)cc1-n1c(=O)c(C(=O)C2=C(O)CCCC2=O)nn(C)c1=O [I-118]	10	10	10	9	10	10	10	10	9	10	9
Cn1nc(C(=O)C2=C(O)CCCC2=O)c(=O)n(N2CCCCC2)c1=O [I-304]	10	10	10	9	10	9	10	10	10	10	10
Cn1nc(C(=O)C2=C(O)CCCC2=O)c(=O)n(-c2ccccc2Cl)c1=O [I-51]	10	10	10	10	10	10	10	10	10	10	10
Cn1nc(C(=O)C2=C(O)CCCC2=O)c(=O)n(-c2ccccc2)c1=O [I-50, 6-(2-hydroxy-6-oxocyclohexa-1-enecarbonyl)-2-methyl-4-phenyl-1,2,4-triazine-3,5 (2H, 4H)-dione]	10	10	10	10	10	10	10	10	10	10	10
Cc1cc(Cl)ccc1-n1c(=O)c(C(=O)C2=C(O)CCCC2=O)nn(C)c1=O [I-137]	10	10	10	9	10	10	10	10	10	10	10
